Assay results as given in patent publication US10118901B2 (priority 2013, dated 2018).

How the values were obtained:
SK-MEL-2 = test: NCI-60 screen at 10 μM: SK-MEL-2; format: cell-based, human; conditions: Melanoma SK-MEL-2; 10 μM single dose; 48 hrs
Method: (§1) NL-101 and CY-102 was sent to U.S. National Cancer Institute (NCI) for NCI 60-cell line screening using a single compound dose (10 μM).
(§2) The human tumor cell lines of the cancer screening panel were grown in RPMI 1640 medium containing 5% fetal bovine serum (5% FBS) and 2 mM L-glutamine. For a typical screening experiment, cells were inoculated into 96-well microtiter plates in 100 μL, at plating densities ranging from 5,000 to 40,000 cells/well depending on the doubling time of individual cell lines. After cell inoculation, the microtiter plates were incubated at 37° C., 5% CO2, 95% air, and 100% relative humidity for 24 h prior to addition of experimental compounds. […]
(§3) Following drug addition, the plates were incubated for an additional 48 hrs at 37° C., 5% CO2, 95% air, and 100% relative humidity. […] Bound stain was subsequently solubilized with 10 mM trizma base, and the absorbance was read on an automated plate reader at a wavelength of 515 nm. […]
(§4) Using the seven absorbance measurements [time zero, (Tz), control growth, (C), and test growth in the presence of drug at the 10 μM concentration levels (Ti)], percentage growth was calculated at each of the drug concentrations levels. Percentage growth inhibition was calculated as: [(Ti−Tz)/(C−Tz)]×100 for which Ti>/=Tz or [(Ti−Tz)/Tz]×100 for which Ti<Tz.

60 cancer cell lines = test: NCI-60 DTP human tumor cell line screen at 10 μM, whole panel; format: cell-based; conditions: for Growth %, Median: 10 μM single dose, median over cell lines; for mean growth percent in the 60 cancer cell lines: single dose of about 10 μM
Method: as §1
The human tumor cell lines of the cancer screening panel were grown in RPMI 1640 medium containing 5% fetal bovine serum (5% FBS) and 2 mM L-glutamine. For a typical screening experiment, cells were inoculated into 96-well microtiter plates in 100 μL, at plating densities ranging from 5,000 to 40,000 cells/well depending on the doubling time of individual cell lines. After cell inoculation, the microtiter plates were incubated at 37° C., 5% CO2, 95% air, and 100% relative humidity for 24 h prior to addition of experimental compounds. After 24 hr, two plates of each cell line were fixed in situ with TCA, to represent a measurement of the cell population for each cell line at the time of drug addition (Tz). Experimental drugs were solubilized in dimethyl sulfoxide at 400-fold the desired final maximum test concentration and stored frozen prior to use. At the time of drug addition, an aliquot of frozen concentrate was thawed and diluted to twice the desired final maximum test concentration with complete medium containing 50 μg/ml gentamicin. Aliquots of 100 μL of these different drug dilutions were added to the appropriate microtiter wells already containing 100 μL of medium, resulting in the required final drug concentrations.
Following drug addition, the plates were incubated for an additional 48 hrs at 37° C., 5% CO2, 95% air, and 100% relative humidity. For adherent cells, the assay was terminated by the addition of cold TCA. Cells were then fixed in situ by the gentle addition of 50 μL of cold 50% (w/v) TCA (final concentration, 10% TCA) and incubated for 60 minutes at 4° C. The supernatant was discarded, and the plates were washed five times with tap water and air dried. Sulforhodamine B (SRB) solution (100 μL) at 0.4% (w/v) in 1% acetic acid was added to each well, and plates were incubated for 10 minutes at room temperature. After staining, unbound dye was removed by washing five times with 1% acetic acid and the plates were air dried. Bound stain was subsequently solubilized with 10 mM trizma base, and the absorbance was read on an automated plate reader at a wavelength of 515 nm. […]
as §4

COLO 205 = test: NCI-60 screen at 10 μM: COLO 205; format: cell-based, human; conditions: Colon Cancer COLO 205; 10 μM single dose; 48 hrs
Method: as §1, §2, §3, §4

LOX IMVI = test: NCI-60 screen at 10 μM: LOX IMVI; format: cell-based, human; conditions: Melanoma LOX IMVI; 10 μM single dose; 48 hrs
Method: as §1, §2, §3, §4

A549/ATCC = test: NCI-60 screen at 10 μM: A549/ATCC; format: cell-based, human; conditions: NSCLC A549/ATCC; 10 μM single dose; 48 hrs
Method: as §1, §2, §3, §4

NCI-H322M = test: NCI-60 screen at 10 μM: NCI-H322M; format: cell-based, human; conditions: NSCLC NCI-H322M; 10 μM single dose; 48 hrs
Method: as §1, §2, §3, §4

ACHN = test: NCI-60 screen at 10 μM: ACHN; format: cell-based, human; conditions: Renal Cancer ACHN; 10 μM single dose; 48 hrs
Method: as §1, §2, §3, §4

OVCAR-3 = test: NCI-60 screen at 10 μM: OVCAR-3; format: cell-based, human; conditions: Ovarian Cancer OVCAR-3; 10 μM single dose; 48 hrs
Method: as §1, §2, §3, §4

IGROV1 = test: NCI-60 screen at 10 μM: IGROV1; format: cell-based, human; conditions: Ovarian Cancer IGROV1; 10 μM single dose; 48 hrs
Method: as §1, §2, §3, §4

T-47D = test: NCI-60 screen at 10 μM: T-47D; format: cell-based, human; conditions: Breast Cancer T-47D; 10 μM single dose; 48 hrs
Method: as §1, §2, §3, §4

SK-MEL-28 = test: NCI-60 screen at 10 μM: SK-MEL-28; format: cell-based, human; conditions: Melanoma SK-MEL-28; 10 μM single dose; 48 hrs
Method: as §1, §2, §3, §4

A498 = test: NCI-60 screen at 10 μM: A498; format: cell-based, human; conditions: Renal Cancer A498; 10 μM single dose; 48 hrs
Method: as §1, §2, §3, §4

HCT-15 = test: NCI-60 screen at 10 μM: HCT-15; format: cell-based, human; conditions: Colon Cancer HCT-15; 10 μM single dose; 48 hrs
Method: as §1, §2, §3, §4

SR = test: NCI-60 screen at 10 μM: SR; format: cell-based, human; conditions: Leukemia SR; 10 μM single dose; 48 hrs
Method: as §1, §2, §3, §4

TK-10 = test: NCI-60 screen at 10 μM: TK-10; format: cell-based, human; conditions: Renal Cancer TK-10; 10 μM single dose; 48 hrs
Method: as §1, §2, §3, §4

SNB-19 = test: NCI-60 screen at 10 μM: SNB-19; format: cell-based, human; conditions: CNS Cancer (Glioma) SNB-19; 10 μM single dose; 48 hrs
Method: as §1, §2, §3, §4

OVCAR-4 = test: NCI-60 screen at 10 μM: OVCAR-4; format: cell-based, human; conditions: Ovarian Cancer OVCAR-4; 10 μM single dose; 48 hrs
Method: as §1, §2, §3, §4

U251 = test: NCI-60 screen at 10 μM: U251; format: cell-based, human; conditions: CNS Cancer (Glioma) U251; 10 μM single dose; 48 hrs
Method: as §1, §2, §3, §4

SW-620 = test: NCI-60 screen at 10 μM: SW-620; format: cell-based, human; conditions: Colon Cancer SW-620; 10 μM single dose; 48 hrs
Method: as §1, §2, §3, §4

KM12 = test: NCI-60 screen at 10 μM: KM12; format: cell-based, human; conditions: Colon Cancer KM12; 10 μM single dose; 48 hrs
Method: as §1, §2, §3, §4

HCC-2998 = test: NCI-60 screen at 10 μM: HCC-2998; format: cell-based, human; conditions: Colon Cancer HCC-2998; 10 μM single dose; 48 hrs
Method: as §1, §2, §3, §4

HCT-116 = test: NCI-60 screen at 10 μM: HCT-116; format: cell-based, human; conditions: Colon Cancer HCT-116; 10 μM single dose; 48 hrs
Method: as §1, §2, §3, §4

PC-3 = test: NCI-60 screen at 10 μM: PC-3; format: cell-based, human; conditions: Prostate Cancer PC-3; 10 μM single dose; 48 hrs
Method: as §1, §2, §3, §4

MALME-3M = test: NCI-60 screen at 10 μM: MALME-3M; format: cell-based, human; conditions: Melanoma MALME-3M; 10 μM single dose; 48 hrs
Method: as §1, §2, §3, §4

| SMILES | Growth % (SK-MEL-2) [%] | Growth %, Median (60 cancer cell lines) [%] | mean growth percent in the 60 cancer cell lines (60 cancer cell lines) [%] | Growth % (COLO 205) [%] | Growth % (LOX IMVI) [%] | Growth % (A549/ATCC) [%] | Growth % (NCI-H322M) [%] | Growth % (ACHN) [%] | Growth % (OVCAR-3) [%] | Growth % (IGROV1) [%] | Growth % (T-47D) [%] | Growth % (SK-MEL-28) [%] | Growth % (A498) [%] | Growth % (HCT-15) [%] | Growth % (SR) [%] | Growth % (TK-10) [%] | Growth % (SNB-19) [%] | Growth % (OVCAR-4) [%] | Growth % (U251) [%] | Growth % (SW-620) [%] | further results |
| --- | --- | --- | --- | --- | --- | --- | --- | --- | --- | --- | --- | --- | --- | --- | --- | --- | --- | --- | --- | --- | --- |
| Cn1c(CCNCc2ccc(/C=C/C(=O)NO)cc2)nc2cc(N(CCCl)CCCl)ccc21 [CY-102] | −21.36 | −28.5 | −28 | −81.34 | −26.41 | −32.69 | −15.30 | −19.97 | −55.02 | −14.43 | −27.48 | −21.36 | −81.56 | 9.96 | 0.09 | −28.81 | −10.81 | −19.00 | −39.66 | 2.33 | Growth % (KM12): −78.14%; Growth % (HCC-2998): −80.55%; Growth % (HCT-116): −1.84%; Growth % (PC-3): −1.86%; Growth % (MALME-3M): −64.17% |
| Cn1c(CCCCCCC(=O)NO)nc2cc(N(CCCl)CCCl)ccc21 [NL-101] | 37.31 | 36.35 | 36 | 54.36 | −23.43 | 43.54 | 75.30 | 14.30 | 50.40 | 55.99 | −16.57 | 59.32 | 49.70 | 76.48 | 29.62 | 48.48 | 55.62 | 68.52 | 35.03 | 30.40 | Growth % (KM12): 65.79%; Growth % (HCC-2998): 86.98%; Growth % (HCT-116): 23.73%; Growth % (PC-3): 51.40%; Growth % (MALME-3M): 28.59% |
